In ChEMBL document CHEMBL4507327 (2021):

Legend:
[1] = target: Mitogen-activated protein kinase 1 (Homo sapiens, UniProt P28482); experiment: ERK2(MAP1LGY1) Takeda global kinase panel
[2] = target: Kappa-type opioid receptor (Homo sapiens) (UniProt P41145); settings: Compound concentration 10.0 uM
[3] = target: Citron Rho-interacting kinase (Homo sapiens, UniProt O14578); experiment: CRIK(CIT1LGY1) Takeda global kinase panel
[4] = target: Delta-type opioid receptor (Homo sapiens) (UniProt P41143); settings: Compound concentration 10.0 uM
Sequence of Delta-type opioid receptor (Homo sapiens) (P41143 whole entry): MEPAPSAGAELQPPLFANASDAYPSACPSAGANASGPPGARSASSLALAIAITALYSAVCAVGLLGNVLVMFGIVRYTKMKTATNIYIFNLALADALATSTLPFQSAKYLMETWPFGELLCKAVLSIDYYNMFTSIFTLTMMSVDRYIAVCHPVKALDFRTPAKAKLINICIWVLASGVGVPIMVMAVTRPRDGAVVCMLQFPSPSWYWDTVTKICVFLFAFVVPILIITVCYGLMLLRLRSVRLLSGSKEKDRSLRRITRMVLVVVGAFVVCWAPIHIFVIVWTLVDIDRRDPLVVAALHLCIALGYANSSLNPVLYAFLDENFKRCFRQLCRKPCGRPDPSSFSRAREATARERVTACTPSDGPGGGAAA

[5] = target: Mitogen-activated protein kinase kinase kinase 5 (Homo sapiens, UniProt Q99683); experiment: ASK [MAP3K5(M3K5LGA1)] Takeda global kinase panel
[6] = target: RAC-gamma serine/threonine-protein kinase (Homo sapiens, UniProt Q9Y243); experiment: Akt3 [PKBgamma(AKT3LGY1)] Takeda global kinase panel
[7] = target: G protein-coupled receptor kinase 4 (Homo sapiens, UniProt P32298); experiment: GRK4(GRK4LGRI) Takeda global kinase panel
Sequence of G protein-coupled receptor kinase 4 (P32298 whole entry): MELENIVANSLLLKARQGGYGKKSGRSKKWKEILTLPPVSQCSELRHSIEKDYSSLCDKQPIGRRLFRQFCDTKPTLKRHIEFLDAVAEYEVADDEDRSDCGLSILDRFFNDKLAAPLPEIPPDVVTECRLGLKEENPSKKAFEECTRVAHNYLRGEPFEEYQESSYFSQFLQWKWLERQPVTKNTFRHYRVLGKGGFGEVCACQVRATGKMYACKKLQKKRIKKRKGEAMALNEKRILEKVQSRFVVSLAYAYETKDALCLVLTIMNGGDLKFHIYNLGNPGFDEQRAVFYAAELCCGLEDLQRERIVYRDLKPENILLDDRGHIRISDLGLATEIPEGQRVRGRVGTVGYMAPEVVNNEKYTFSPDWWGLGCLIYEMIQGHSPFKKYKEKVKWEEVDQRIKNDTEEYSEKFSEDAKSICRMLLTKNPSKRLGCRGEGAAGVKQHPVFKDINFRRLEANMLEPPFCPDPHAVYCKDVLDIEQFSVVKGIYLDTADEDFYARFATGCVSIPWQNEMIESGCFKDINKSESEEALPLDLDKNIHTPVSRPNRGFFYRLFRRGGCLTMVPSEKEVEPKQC

[8] = target: cGMP-dependent protein kinase 2 (Homo sapiens, UniProt Q13237); experiment: PKG2(PRG2LHY1) Takeda global kinase panel
[9] = target: Sodium-dependent dopamine transporter (Homo sapiens) (UniProt Q01959); settings: Compound concentration 10.0 uM
[10] = target: Serine/threonine-protein kinase SIK2 (Homo sapiens, UniProt Q9H0K1); experiment: QIK(SIK2LGY1) Takeda global kinase panel
Sequence of Serine/threonine-protein kinase SIK2 (Q9H0K1 whole entry): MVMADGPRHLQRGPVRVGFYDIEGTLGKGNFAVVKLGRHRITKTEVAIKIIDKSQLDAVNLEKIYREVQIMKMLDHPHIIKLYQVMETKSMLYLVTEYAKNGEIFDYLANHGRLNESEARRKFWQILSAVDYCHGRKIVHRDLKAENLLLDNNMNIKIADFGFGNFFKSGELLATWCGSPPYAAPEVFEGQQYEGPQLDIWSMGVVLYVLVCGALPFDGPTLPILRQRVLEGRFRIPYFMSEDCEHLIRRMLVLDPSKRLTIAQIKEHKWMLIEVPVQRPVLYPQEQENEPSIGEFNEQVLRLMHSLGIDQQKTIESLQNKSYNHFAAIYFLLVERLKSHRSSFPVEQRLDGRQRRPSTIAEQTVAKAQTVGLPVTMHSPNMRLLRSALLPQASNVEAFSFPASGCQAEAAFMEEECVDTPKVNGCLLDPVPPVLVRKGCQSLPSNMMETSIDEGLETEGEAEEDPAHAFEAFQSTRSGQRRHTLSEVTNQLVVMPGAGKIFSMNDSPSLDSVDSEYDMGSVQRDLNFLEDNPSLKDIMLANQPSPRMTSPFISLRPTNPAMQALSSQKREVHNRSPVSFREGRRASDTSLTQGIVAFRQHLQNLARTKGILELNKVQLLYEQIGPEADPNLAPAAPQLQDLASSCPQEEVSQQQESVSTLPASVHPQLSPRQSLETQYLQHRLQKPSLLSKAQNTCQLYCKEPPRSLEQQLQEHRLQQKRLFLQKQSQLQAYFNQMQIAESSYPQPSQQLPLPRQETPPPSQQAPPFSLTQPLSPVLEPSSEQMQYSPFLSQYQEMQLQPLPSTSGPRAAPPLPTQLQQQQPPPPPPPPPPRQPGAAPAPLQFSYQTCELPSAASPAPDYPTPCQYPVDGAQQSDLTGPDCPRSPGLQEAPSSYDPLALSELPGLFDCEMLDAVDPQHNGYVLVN

[11] = target: Glycogen synthase kinase-3 beta (Homo sapiens, UniProt P49841); experiment: GSK3beta(GS3BLGM1) Takeda global kinase panel
Sequence of Glycogen synthase kinase-3 beta (P49841 whole entry): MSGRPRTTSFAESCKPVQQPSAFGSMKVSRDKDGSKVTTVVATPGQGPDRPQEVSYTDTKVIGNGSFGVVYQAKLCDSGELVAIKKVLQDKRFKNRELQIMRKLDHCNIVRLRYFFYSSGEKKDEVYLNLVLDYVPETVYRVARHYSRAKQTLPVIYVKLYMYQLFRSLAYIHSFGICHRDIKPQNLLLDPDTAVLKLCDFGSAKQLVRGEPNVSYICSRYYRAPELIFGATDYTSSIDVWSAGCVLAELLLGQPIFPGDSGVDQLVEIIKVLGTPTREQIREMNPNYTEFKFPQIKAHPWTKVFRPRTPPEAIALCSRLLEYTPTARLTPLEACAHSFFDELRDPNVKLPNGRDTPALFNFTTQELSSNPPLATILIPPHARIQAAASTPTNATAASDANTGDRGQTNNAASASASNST

[12] = target: Mitogen-activated protein kinase 10 (Homo sapiens, UniProt P53779); experiment: JNK3(MP10LGF2) Takeda global kinase panel
[13] = target: Cyclin-dependent kinase 11A (Homo sapiens, UniProt Q9UQ88); experiment: CDK11A(C11ALGS1) Takeda global kinase panel
Sequence of Cyclin-dependent kinase 11A (Q9UQ88 whole entry, canonical isoform): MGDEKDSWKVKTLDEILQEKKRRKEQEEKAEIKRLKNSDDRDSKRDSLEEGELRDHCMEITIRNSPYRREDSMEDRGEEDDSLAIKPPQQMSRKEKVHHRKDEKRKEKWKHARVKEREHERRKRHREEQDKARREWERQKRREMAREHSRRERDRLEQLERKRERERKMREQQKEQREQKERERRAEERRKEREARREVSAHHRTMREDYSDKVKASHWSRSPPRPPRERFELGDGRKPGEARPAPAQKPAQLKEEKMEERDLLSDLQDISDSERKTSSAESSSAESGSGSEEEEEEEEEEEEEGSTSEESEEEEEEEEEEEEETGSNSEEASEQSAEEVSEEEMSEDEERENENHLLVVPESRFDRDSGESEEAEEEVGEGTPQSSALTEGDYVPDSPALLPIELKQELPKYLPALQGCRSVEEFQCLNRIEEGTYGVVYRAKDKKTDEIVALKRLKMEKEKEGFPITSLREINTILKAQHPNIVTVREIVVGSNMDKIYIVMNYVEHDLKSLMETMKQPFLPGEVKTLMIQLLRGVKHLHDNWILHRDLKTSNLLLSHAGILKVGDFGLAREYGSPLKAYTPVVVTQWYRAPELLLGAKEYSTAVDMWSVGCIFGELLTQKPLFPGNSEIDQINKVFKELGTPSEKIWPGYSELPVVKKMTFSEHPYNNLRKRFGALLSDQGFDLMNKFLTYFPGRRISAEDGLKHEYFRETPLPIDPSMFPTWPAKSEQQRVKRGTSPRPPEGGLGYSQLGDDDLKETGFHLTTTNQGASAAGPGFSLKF

[14] = target: Casein kinase I isoform gamma-1 (Homo sapiens, UniProt Q9HCP0); experiment: CK1gamma1(C1G1LGI1) Takeda global kinase panel
[15] = target: Androgen receptor (Homo sapiens) (UniProt P10275); settings: Compound concentration 10.0 uM
[16] = target: Serine/threonine-protein kinase pim-3 (Homo sapiens, UniProt Q86V86); experiment: Pim3(PIM3LGP1) Takeda global kinase panel
[17] = target: Wee1-like protein kinase 2 (Homo sapiens, UniProt P0C1S8); experiment: Wee1B(WE1BLGF1) Takeda global kinase panel
[18] = target: Ribosomal protein S6 kinase beta-1 (Homo sapiens, UniProt P23443); experiment: p70S6K(R6B1CGF1) Takeda global kinase panel
[19] = target: Serine/threonine-protein kinase Sgk3 (Homo sapiens, UniProt Q96BR1); experiment: SGK3(SGK3LGY1) Takeda global kinase panel
[20] = target: Gamma-aminobutyric acid type B receptor subunit 1 (Homo sapiens) (UniProt Q9UBS5); experiment: Inhibition of GABAB1A at compound concentration of 10.0 uM in the Eurofins-Panlabs radioligand binding assay (Eurofins_assay_228610); parameters: ligand concentration 4 nM; settings: Compound concentration 10.0 uM
[21] = target: Activin receptor type-1-like (Homo sapiens, UniProt P37023); experiment: ALK1(ACL1LGF1) Takeda global kinase panel
[22] = target: Serine/threonine-protein kinase D3 (Homo sapiens, UniProt O94806); experiment: PKD3(PRD3LGG5) Takeda global kinase panel
[23] = target: Eukaryotic translation initiation factor 2-alpha kinase 1 (Homo sapiens, UniProt Q9BQI3); experiment: HRI(EIK1CGQ1) Takeda global kinase panel
[24] = target: Mitogen-activated protein kinase 15 (Homo sapiens, UniProt Q8TD08); experiment: ERK7(MP15LGY1) Takeda global kinase panel
[25] = target: Serine/threonine-protein kinase Chk2 (Homo sapiens, UniProt O96017); experiment: CHK2(CHE2LGY1) Takeda global kinase panel
[26] = target: Serine/threonine-protein kinase ULK2 (Homo sapiens, UniProt Q8IYT8); experiment: ULK2(ULK2LGY1) Takeda global kinase panel
SRSF protein kinase 2 = SRSF protein kinase 2 (Homo sapiens, UniProt P78362); experiment: SRPK2(SRP2IGRL) Takeda global kinase panel
[27] = target: Serine/threonine-protein kinase MARK1 (Homo sapiens, UniProt Q9P0L2); experiment: MARK1(MAR1PHY1) Takeda global kinase panel
[28] = target: Mitogen-activated protein kinase kinase kinase 11 (Homo sapiens, UniProt Q16584); experiment: MLK3(M311LGF1) Takeda global kinase panel
[29] = target: Cyclin-dependent kinase 14 (Homo sapiens, UniProt O94921); experiment: PFTAIRE1(CD14CGS1) Takeda global kinase panel
[30] = target: Rho-associated protein kinase 1 (Homo sapiens, UniProt Q13464); experiment: ROCK1(ROC1LGY1) Takeda global kinase panel
[31] = target: Death-associated protein kinase 1 (Homo sapiens, UniProt P53355); experiment: DAPK1(DAP1LGF1) Takeda global kinase panel
[32] = target: Dual specificity testis-specific protein kinase 2 (Homo sapiens, UniProt Q96S53); experiment: TESK2(TES2LGRL) Takeda global kinase panel
[33] = target: ALK tyrosine kinase receptor (Homo sapiens, UniProt Q9UM73); experiment: ALK(ALK1LGY1) Takeda global kinase panel
Aurora kinase A = Aurora kinase A (Homo sapiens, UniProt O14965); experiment: AurA [Aur2(AURALGF1)] Takeda global kinase panel
Sequence of Aurora kinase A (O14965 whole entry): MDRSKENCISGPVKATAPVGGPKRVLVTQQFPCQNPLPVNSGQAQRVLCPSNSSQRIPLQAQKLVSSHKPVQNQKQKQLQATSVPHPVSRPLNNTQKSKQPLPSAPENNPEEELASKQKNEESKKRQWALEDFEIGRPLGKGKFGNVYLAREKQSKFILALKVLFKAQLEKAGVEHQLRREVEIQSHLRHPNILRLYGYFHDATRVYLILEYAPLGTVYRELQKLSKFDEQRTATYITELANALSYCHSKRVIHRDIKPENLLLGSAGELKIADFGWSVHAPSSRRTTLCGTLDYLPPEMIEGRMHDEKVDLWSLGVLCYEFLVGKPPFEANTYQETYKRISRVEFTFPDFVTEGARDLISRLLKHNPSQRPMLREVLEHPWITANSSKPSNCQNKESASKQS

[34] = target: Serine/threonine-protein kinase 32C (Homo sapiens, UniProt Q86UX6); experiment: YANK3(S32CLGI1) Takeda global kinase panel
[35] = target: Serine/threonine-protein kinase Nek5 (Homo sapiens, UniProt Q6P3R8); experiment: Nek5(NEK5LGRD) Takeda global kinase panel
[36] = target: NUAK family SNF1-like kinase 1 (Homo sapiens, UniProt O60285); experiment: NuaK1(NUA1LGF5) Takeda global kinase panel
[37] = target: Substance-P receptor (Homo sapiens) (UniProt P25103); experiment: Inhibition of Tachykinin NK1 at 10 µM in the Eurofins-Panlabs radioligand binding assay (Eurofins_assay_255520); parameters: ligand concentration 0.8 nM; settings: Compound concentration 10.0 uM
[38] = target: Cyclin-dependent kinase 1 (Homo sapiens, UniProt P06493); experiment: CDC2 [CDK1(CDK1CGS1)] Takeda global kinase panel
Sequence of Cyclin-dependent kinase 1 (P06493 whole entry): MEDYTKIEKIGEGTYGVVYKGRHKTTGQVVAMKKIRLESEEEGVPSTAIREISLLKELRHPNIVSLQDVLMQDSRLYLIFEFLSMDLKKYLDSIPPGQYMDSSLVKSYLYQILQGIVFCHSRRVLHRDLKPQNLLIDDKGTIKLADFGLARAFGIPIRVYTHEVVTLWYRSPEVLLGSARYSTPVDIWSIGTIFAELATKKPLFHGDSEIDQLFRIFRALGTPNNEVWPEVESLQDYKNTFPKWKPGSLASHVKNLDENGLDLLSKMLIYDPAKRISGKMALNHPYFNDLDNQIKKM

[39] = target: Mu-type opioid receptor (Homo sapiens) (UniProt P35372); settings: Compound concentration 10.0 uM
Sequence of Mu-type opioid receptor (Homo sapiens) (P35372 whole entry): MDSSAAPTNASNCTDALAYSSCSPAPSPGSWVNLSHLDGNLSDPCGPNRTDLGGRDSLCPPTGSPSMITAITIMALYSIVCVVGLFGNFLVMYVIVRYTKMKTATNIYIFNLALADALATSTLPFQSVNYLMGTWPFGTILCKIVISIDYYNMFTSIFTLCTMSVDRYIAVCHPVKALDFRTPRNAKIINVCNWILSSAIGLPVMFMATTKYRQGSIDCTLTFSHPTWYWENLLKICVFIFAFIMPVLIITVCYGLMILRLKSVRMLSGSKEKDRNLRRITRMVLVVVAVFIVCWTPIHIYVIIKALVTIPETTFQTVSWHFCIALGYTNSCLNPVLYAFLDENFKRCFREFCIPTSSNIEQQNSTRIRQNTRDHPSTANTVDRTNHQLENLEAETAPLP

Ephrin type-A receptor 5 = Ephrin type-A receptor 5 (Homo sapiens, UniProt P54756); experiment: EphA5(EPA5MGF1) Takeda global kinase panel
[40] = target: Ankyrin repeat and protein kinase domain-containing protein 1 (Homo sapiens, UniProt Q8NFD2); experiment: SgK288(ANK1LGRL) Takeda global kinase panel
Sequence of Ankyrin repeat and protein kinase domain-containing protein 1 (Q8NFD2 whole entry, the tested form may be a part): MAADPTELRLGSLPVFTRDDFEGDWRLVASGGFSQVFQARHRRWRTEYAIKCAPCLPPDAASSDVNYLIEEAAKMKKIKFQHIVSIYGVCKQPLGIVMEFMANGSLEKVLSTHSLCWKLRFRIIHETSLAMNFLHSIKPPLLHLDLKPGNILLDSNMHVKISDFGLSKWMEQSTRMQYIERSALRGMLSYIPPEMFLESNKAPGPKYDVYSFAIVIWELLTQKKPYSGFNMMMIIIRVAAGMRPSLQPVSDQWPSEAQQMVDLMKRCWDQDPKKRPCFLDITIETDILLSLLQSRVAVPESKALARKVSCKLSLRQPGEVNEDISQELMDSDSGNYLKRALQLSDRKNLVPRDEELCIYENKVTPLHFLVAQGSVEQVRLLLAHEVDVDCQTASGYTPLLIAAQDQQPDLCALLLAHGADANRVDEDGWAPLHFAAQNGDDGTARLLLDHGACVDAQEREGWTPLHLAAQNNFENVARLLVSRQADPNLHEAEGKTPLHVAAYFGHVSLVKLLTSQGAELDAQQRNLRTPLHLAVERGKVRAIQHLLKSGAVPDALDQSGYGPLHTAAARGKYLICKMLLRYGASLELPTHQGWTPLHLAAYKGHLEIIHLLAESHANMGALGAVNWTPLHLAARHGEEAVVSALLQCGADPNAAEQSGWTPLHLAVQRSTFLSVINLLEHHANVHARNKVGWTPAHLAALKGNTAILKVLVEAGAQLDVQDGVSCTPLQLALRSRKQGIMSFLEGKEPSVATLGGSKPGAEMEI

[41] = target: Serine/threonine-protein kinase N1 (Homo sapiens, UniProt Q16512); experiment: PKN1 [PRK1(PKN1LGY1)] Takeda global kinase panel
[42] = target: Serine/threonine-protein kinase Nek2 (Homo sapiens, UniProt P51955); experiment: Nek2(NEK2LHFA) Takeda global kinase panel

**Q.** For `CN1C(=O)[C@@H](N2CCc3cn(Cc4ccccc4)nc3C2=O)COc2ccccc21` [TP-030-1], which IC50 [1] is on record?
**A.** 1000 nM

**Q.** And the inhibition [2]?
**A.** 3%

**Q.** And the IC50 [3]?
**A.** 1000 nM

**Q.** What about the inhibition [4] of the same molecule?
**A.** 3%

**Q.** And the IC50 [5]?
**A.** 1000 nM

**Q.** What about the IC50 [6] of the same molecule?
**A.** 1000 nM

**Q.** What about the IC50 [7] of the same molecule?
**A.** 1000 nM

**Q.** What about the IC50 [8] of the same molecule?
**A.** 1000 nM

**Q.** What about the inhibition [9] of the same molecule?
**A.** 29%

**Q.** And the IC50 [10]?
**A.** 1000 nM

**Q.** And the IC50 [11]?
**A.** 1000 nM

**Q.** And the IC50 [12]?
**A.** 1000 nM

**Q.** What about the IC50 [13] of the same molecule?
**A.** 1000 nM

**Q.** And the IC50 [14]?
**A.** 1000 nM

**Q.** And the inhibition [15]?
**A.** 6%

**Q.** What about the IC50 [16] of the same molecule?
**A.** 1000 nM

**Q.** And the IC50 [17]?
**A.** 1000 nM

**Q.** What about the IC50 [18] of the same molecule?
**A.** 1000 nM

**Q.** And the IC50 [19]?
**A.** 1000 nM

**Q.** What about the inhibition [20] of the same molecule?
**A.** 0%

**Q.** And the IC50 [21]?
**A.** 1000 nM

**Q.** What about the IC50 [22] of the same molecule?
**A.** 1000 nM

**Q.** What about the IC50 [23] of the same molecule?
**A.** 1000 nM

**Q.** What about the IC50 [24] of the same molecule?
**A.** 1000 nM

**Q.** And the IC50 [25]?
**A.** 1000 nM

**Q.** What about the IC50 [26] of the same molecule?
**A.** 1000 nM

**Q.** And the IC50 (SRSF protein kinase 2)?
**A.** 1000 nM

**Q.** And the IC50 [27]?
**A.** 1000 nM

**Q.** What about the IC50 [28] of the same molecule?
**A.** 1000 nM

**Q.** What about the IC50 [29] of the same molecule?
**A.** 1000 nM

**Q.** What about the IC50 [30] of the same molecule?
**A.** 1000 nM

**Q.** What about the IC50 [31] of the same molecule?
**A.** 1000 nM

**Q.** What about the IC50 [32] of the same molecule?
**A.** 1000 nM

**Q.** What about the IC50 [33] of the same molecule?
**A.** 1000 nM

**Q.** What about the IC50 (Aurora kinase A) of the same molecule?
**A.** 1000 nM

**Q.** What about the IC50 [34] of the same molecule?
**A.** 1000 nM

**Q.** What about the IC50 [35] of the same molecule?
**A.** 1000 nM

**Q.** What about the IC50 [36] of the same molecule?
**A.** 1000 nM

**Q.** What about the inhibition [37] of the same molecule?
**A.** 29%

**Q.** What about the IC50 [38] of the same molecule?
**A.** 1000 nM

**Q.** And the inhibition [39]?
**A.** 19%

**Q.** What about the IC50 (Ephrin type-A receptor 5) of the same molecule?
**A.** 1000 nM

**Q.** And the IC50 [40]?
**A.** 1000 nM

**Q.** And the IC50 [41]?
**A.** 1000 nM

**Q.** What about the IC50 [42] of the same molecule?
**A.** 1000 nM

**Q.** Which results are given for `CN1C(=O)[C@@H](N2CCc3cn(CC4CCS(=O)(=O)CC4)nc3C2=O)COc2ccccc21` [TP-030n]?
**A.** IC50 [1]: 1000 nM; inhibition [2]: 3%; IC50 [3]: 1000 nM; inhibition [4]: -8%; IC50 [5]: 1000 nM; IC50 [6]: 1000 nM; IC50 [7]: 1000 nM; IC50 [8]: 1000 nM; inhibition [9]: 10%; IC50 [10]: 1000 nM; IC50 [11]: 1000 nM; IC50 [12]: 1000 nM; IC50 [13]: 1000 nM; IC50 [14]: 1000 nM; inhibition [15]: 0%; IC50 [16]: 1000 nM; IC50 [17]: 1000 nM; IC50 [18]: 1000 nM; IC50 [19]: 1000 nM; inhibition [20]: -6%; IC50 [21]: 1000 nM; IC50 [22]: 1000 nM; IC50 [23]: 1000 nM; IC50 [24]: 1000 nM; IC50 [25]: 1000 nM; IC50 [26]: 1000 nM; IC50 (SRSF protein kinase 2): 1000 nM; IC50 [27]: 1000 nM; IC50 [28]: 1000 nM; IC50 [29]: 1000 nM; IC50 [30]: 1000 nM; IC50 [31]: 1000 nM; IC50 [32]: 1000 nM; IC50 [33]: 1000 nM; IC50 (Aurora kinase A): 1000 nM; IC50 [34]: 1000 nM; IC50 [35]: 1000 nM; IC50 [36]: 1000 nM; inhibition [37]: 14%; IC50 [38]: 1000 nM; inhibition [39]: 4%; IC50 (Ephrin type-A receptor 5): 1000 nM; IC50 [40]: 1000 nM; IC50 [41]: 1000 nM; IC50 [42]: 1000 nM
